Experimental data from patent US20240026314A1, “POLYPEPTIDES FOR USE IN THE SYNTHESIS OF BIOACTIVE PHENOLIC COMPOUNDS” (priority 2020, published 2024).
Where two headings read alike, the source gives them in different places.

Experiments:
CsOMT6 = test: O-methyltransferase enzyme assay with recombinant CsOMT6; format: biochemical, Cannabis sativa; conditions: 1 mM substrate, [14C]-SAM, 30 min at 37° C.
CsOMT21 = test: O-methyltransferase enzyme assay with recombinant CsOMT21; format: biochemical, Cannabis sativa; conditions: 1 mM substrate, [14C]-SAM, 30 min at 37° C.
CsOMT1 = test: O-methyltransferase enzyme assay with recombinant CsOMT1; format: biochemical, Cannabis sativa; conditions: compound as substrate, 1 mM, [14C]-SAM methyl donor, relative to dihydroresveratrol
[1] = tested on: colon cancer cell line SW480; conditions: cited from earlier work
[2] = tested on: human leukemia cell line HL60; conditions: cited from earlier work
sarcoma S-180 = conditions: cited from earlier work
[3] = substrate: Oc1ccc(CCc2cc(O)cc(O)c2)cc1; test: Enzyme kinetics (Michaelis-Menten) of recombinant CsOMT1 O-methyltransferase with dihydroresveratrol as substrate (FIG. 6C); format: biochemical, Cannabis sativa; conditions: other: substrate dihydroresveratrol, standard assay conditions (50 mM Tris-HCl, pH 7.5, 5 mM MgCl2, 10% glycerol, 37° C, [14C]-SAM methyl donor), non-linear regression, Michaelis-M
Protocol: FIG. 6. Enzymatic methylation activity of CsOMT1. (A) Reaction catalyzed by CsOMT1. (B) Representative chromatogram showing the reaction products resolved by HPLC that illustrates the separation of the methylated dihydroresveratrol from its corresponding substrate (dihydroresveratrol, DHR). The identity of 3-O-methyl-dihydroresveratrol (pinobistilbene) was structurally determined by NMR. (C) Kinetic analysis of CsOMT1. Recombinant CsOMT1 was assayed under standard assay conditions at the indicated concentrations of dihydroresveratrol. Kinetic parameters were determined by non-linear regression analysis using the Michaelis-Menten kinetics model of the SigmaPlot 12.3 software.
Expression of recombinant prenyltransferases in E. coli. In typical aspects, open reading frames encoding soluble aromatic prenyltransferases from bacteria or fungi, for example NphB, HypSC, CloQ, NovQ, Fur7, or PpzP are synthesized commercially. […]
Recombinant protein expression of CsOMTs in E. coli. Open reading frames corresponding to O-methyltransferases from C. sativa are synthesized by commercially. […]
O-methyltransferase enzyme assays. […] The enzymatic products are extracted with four volumes of ethyl acetate and quantified using a scintillation counter. […] The eluted products are detected by absorption at the 210-350 nm range and quantified relative to authentic standards. […]

With `O=c1c(O)c(-c2ccc(O)c(O)c2)oc2cc(O)cc(O)c12` [quercetin] the methylation of substrate (CsOMT6) was “preferred methylation” and the methylation of substrate (CsOMT21) was “able to methylate”.

For `COc1cc(O)cc(CCc2cccc(O)c2)c1` [batatasin III], the “O-methyltransferase activity relative to that with DHR” value (CsOMT1) was “about 25%”.

For `O=c1cc(-c2ccc(O)c(O)c2)oc2cc(O)cc(O)c12` [luteolin], the methylation of substrate (CsOMT21) was “able to methylate”.

For `CC(C)=CCc1cc(/C=C/C(=O)O)cc(CC=C(C)C)c1O` [artepillin C], the apoptotic events [1] is given as “induce apoptotic events”, the apoptotic events [2] is given as “induce apoptotic events” and the tumor growth (sarcoma S-180; mouse, in vivo, po) is given as “significant reduction in tumor growth”.

In the case of `CC(C)=CCc1cc(/C=C/C(=O)O)ccc1O` [drupanin], the apoptotic events ([1]; SW480 (Akao et al 2008)) is given as “induce apoptotic events”, the apoptotic events ([2]; HL60 (Akao et al 2008)) is given as “induce apoptotic events” and the tumor growth (sarcoma S-180; oral administration, mice with sarcoma S-180 (Mishima et al 2005)) is given as “significant reduction in tumor growth”.

B1: CsOMT1 (recombinant O-methyltransferase, SEQ ID NO: 7, PK03555; 6×His-tagged, expressed in E. coli) (Cannabis sativa) (protein)
chain: MEADGEDAVLRGQVEIWKYMLSFADSMALKCAVELQLADIIHSHTSPITLSQIASAIPGATSPDLSCLARIMRLLVRRRIFTQHQKPKSDGEEEEALYGPTHSSRWLLTKTNDHDQLTLAPMILMENDPRLMAPWHCFSRCVKEGGVAFKKAHNGQSIWEFGAENPEINKLFNDAMECTAKVVMKAILSHYSDGGFSDIKSMVDVGGGTGGSISEIVRSYPHIKGINFDLPHVIATAPPYSGVSHVGGDMFRSVPTADAIFMKWILHDWSDEDCVKILKNCRKAIAEESGKVIIVESVLEEESNNNNNNNEVFGDTALMLDLVMVAHTTGGKERTQKQWKTILEQGGFPRYNFIKIKALPSIIEAYPN
B1 showed a Km [3] of 22.2 ± 4.6 µM.
